# Results reported in the NIST ThermoML archive (doi:10.1016/j.jct.2018.09.003).
# Numbers after ± are expanded uncertainties.
# Experiment: activity coefficient (dimensionless); of the first substance listed, at infinite dilution; xn = mol fraction of the nth substance listed
# Settings: 333.15 K; 101.33 kPa; Liquid; Chromatography; x1 = 0
row,Structure (SMILES),activity coefficient
1,CCCCCCC [heptane] + CCCCCCCCn1cc[n+](C)c1C.F[B-](F)(F)F,24.7 ± 2.6
2,ClC(Cl)(Cl)Cl [tetrachloromethane] + CCCCCCCCn1cc[n+](C)c1C.F[B-](F)(F)F,4.2 ± 0.44
3,CCCCCCCC [octane] + CCCCCCCCn1cc[n+](C)c1C.F[B-](F)(F)F,32.2 ± 3.4
4,"Cc1ccc(C)cc1 [1,4-dimethylbenzene] + CCCCCCCCn1cc[n+](C)c1C.F[B-](F)(F)F",4.16 ± 0.44
5,CC(C)=O [acetone] + CCCCCCCCn1cc[n+](C)c1C.F[B-](F)(F)F,1.41 ± 0.15
6,"Cc1cccc(C)c1 [1,3-dimethylbenzene] + CCCCCCCCn1cc[n+](C)c1C.F[B-](F)(F)F",4.29 ± 0.45
7,ClC(Cl)Cl [trichloromethane] + CCCCCCCCn1cc[n+](C)c1C.F[B-](F)(F)F,1.07 ± 0.11
8,"Cc1ccccc1C [1,2-dimethylbenzene] + CCCCCCCCn1cc[n+](C)c1C.F[B-](F)(F)F",3.7 ± 0.39
9,Cc1ccccc1 [toluene] + CCCCCCCCn1cc[n+](C)c1C.F[B-](F)(F)F,2.95 ± 0.31
10,CCCCCCCCCC [decane] + CCCCCCCCn1cc[n+](C)c1C.F[B-](F)(F)F,52.9 ± 5.6

# Continued, values first:
row,activity coefficient,Structure (SMILES)
1,1.36 ± 0.14,CO [methanol] + CCCCCCCCn1cc[n+](C)c1C.F[B-](F)(F)F
2,19.2 ± 2,CCCCCC [hexane] + CCCCCCCCn1cc[n+](C)c1C.F[B-](F)(F)F
3,2.52 ± 0.26,CCCCO [butan-1-ol] + CCCCCCCCn1cc[n+](C)c1C.F[B-](F)(F)F
4,2.2 ± 0.23,CC(C)O [propan-2-ol] + CCCCCCCCn1cc[n+](C)c1C.F[B-](F)(F)F
5,2.96 ± 0.31,CCOC(C)=O [ethyl acetate] + CCCCCCCCn1cc[n+](C)c1C.F[B-](F)(F)F
6,1.04 ± 0.11,CC#N [acetonitrile] + CCCCCCCCn1cc[n+](C)c1C.F[B-](F)(F)F
7,2.24 ± 0.24,CCCO [propan-1-ol] + CCCCCCCCn1cc[n+](C)c1C.F[B-](F)(F)F
8,2.12 ± 0.22,C1CCOC1 [tetrahydrofuran] + CCCCCCCCn1cc[n+](C)c1C.F[B-](F)(F)F

# Same assay, conditions: 343.15 K; 101.33 kPa; Liquid; Chromatography; x1 = 0
row,Structure (SMILES),activity coefficient
1,c1ccccc1 [benzene] + CCCCCCCCn1cc[n+](C)c1C.F[B-](F)(F)F,2.12 ± 0.22
2,CCCCCCCCC [nonane] + CCCCCCCCn1cc[n+](C)c1C.F[B-](F)(F)F,38.4 ± 4
3,ClCCl [dichloromethane] + CCCCCCCCn1cc[n+](C)c1C.F[B-](F)(F)F,1.1 ± 0.11
4,CCc1ccccc1 [ethylbenzene] + CCCCCCCCn1cc[n+](C)c1C.F[B-](F)(F)F,4.5 ± 0.47
5,CCCCCCC [heptane] + CCCCCCCCn1cc[n+](C)c1C.F[B-](F)(F)F,24.3 ± 2.5
6,ClC(Cl)(Cl)Cl [tetrachloromethane] + CCCCCCCCn1cc[n+](C)c1C.F[B-](F)(F)F,4.23 ± 0.44
7,CCCCCCCC [octane] + CCCCCCCCn1cc[n+](C)c1C.F[B-](F)(F)F,31.8 ± 3.3
8,"Cc1ccc(C)cc1 [1,4-dimethylbenzene] + CCCCCCCCn1cc[n+](C)c1C.F[B-](F)(F)F",4.2 ± 0.44
9,CC(C)=O [acetone] + CCCCCCCCn1cc[n+](C)c1C.F[B-](F)(F)F,1.42 ± 0.15
10,"Cc1cccc(C)c1 [1,3-dimethylbenzene] + CCCCCCCCn1cc[n+](C)c1C.F[B-](F)(F)F",4.35 ± 0.46
11,ClC(Cl)Cl [trichloromethane] + CCCCCCCCn1cc[n+](C)c1C.F[B-](F)(F)F,1.08 ± 0.11
12,"Cc1ccccc1C [1,2-dimethylbenzene] + CCCCCCCCn1cc[n+](C)c1C.F[B-](F)(F)F",3.82 ± 0.4
13,Cc1ccccc1 [toluene] + CCCCCCCCn1cc[n+](C)c1C.F[B-](F)(F)F,3.02 ± 0.32
14,CCCCCCCCCC [decane] + CCCCCCCCn1cc[n+](C)c1C.F[B-](F)(F)F,51.5 ± 5.4

# Now from value to compound:
row,activity coefficient,Structure (SMILES)
1,14.7 ± 1.6,CC1CCCCC1 [methylcyclohexane] + CCCCCCCCn1cc[n+](C)c1C.F[B-](F)(F)F
2,14.3 ± 1.5,CCCCC [pentane] + CCCCCCCCn1cc[n+](C)c1C.F[B-](F)(F)F
3,2.3 ± 0.24,CC(C)CO [2-methyl-1-propanol] + CCCCCCCCn1cc[n+](C)c1C.F[B-](F)(F)F
4,7.63 ± 0.8,C1=CCCCC1 [cyclohexene] + CCCCCCCCn1cc[n+](C)c1C.F[B-](F)(F)F
5,1.67 ± 0.17,CCO [ethanol] + CCCCCCCCn1cc[n+](C)c1C.F[B-](F)(F)F
6,11.9 ± 1.2,C1CCCCC1 [cyclohexane] + CCCCCCCCn1cc[n+](C)c1C.F[B-](F)(F)F
7,26.9 ± 2.8,"CC(C)CC(C)(C)C [2,2,4-trimethylpentane] + CCCCCCCCn1cc[n+](C)c1C.F[B-](F)(F)F"
8,2.51 ± 0.26,CCC(C)O (stereo not given) [butan-2-ol] + CCCCCCCCn1cc[n+](C)c1C.F[B-](F)(F)F
9,1.81 ± 0.19,"C1COCCO1 [1,4-dioxane] + CCCCCCCCn1cc[n+](C)c1C.F[B-](F)(F)F"
10,1.26 ± 0.13,CO [methanol] + CCCCCCCCn1cc[n+](C)c1C.F[B-](F)(F)F
11,18.7 ± 2,CCCCCC [hexane] + CCCCCCCCn1cc[n+](C)c1C.F[B-](F)(F)F
12,2.4 ± 0.25,CCCCO [butan-1-ol] + CCCCCCCCn1cc[n+](C)c1C.F[B-](F)(F)F
13,2.07 ± 0.22,CC(C)O [propan-2-ol] + CCCCCCCCn1cc[n+](C)c1C.F[B-](F)(F)F
14,2.96 ± 0.31,CCOC(C)=O [ethyl acetate] + CCCCCCCCn1cc[n+](C)c1C.F[B-](F)(F)F
15,1.05 ± 0.11,CC#N [acetonitrile] + CCCCCCCCn1cc[n+](C)c1C.F[B-](F)(F)F
16,2.1 ± 0.22,CCCO [propan-1-ol] + CCCCCCCCn1cc[n+](C)c1C.F[B-](F)(F)F
17,2.13 ± 0.22,C1CCOC1 [tetrahydrofuran] + CCCCCCCCn1cc[n+](C)c1C.F[B-](F)(F)F

# Same assay, conditions: 353.15 K; 101.33 kPa; Liquid; Chromatography; x1 = 0
row,Structure (SMILES),activity coefficient
1,c1ccccc1 [benzene] + CCCCCCCCn1cc[n+](C)c1C.F[B-](F)(F)F,2.15 ± 0.23
2,CCCCCCCCC [nonane] + CCCCCCCCn1cc[n+](C)c1C.F[B-](F)(F)F,37.1 ± 3.9
3,ClCCl [dichloromethane] + CCCCCCCCn1cc[n+](C)c1C.F[B-](F)(F)F,1.11 ± 0.11
4,CCc1ccccc1 [ethylbenzene] + CCCCCCCCn1cc[n+](C)c1C.F[B-](F)(F)F,4.57 ± 0.48
5,CCCCCCC [heptane] + CCCCCCCCn1cc[n+](C)c1C.F[B-](F)(F)F,23.9 ± 2.5
6,ClC(Cl)(Cl)Cl [tetrachloromethane] + CCCCCCCCn1cc[n+](C)c1C.F[B-](F)(F)F,4.26 ± 0.45
7,CCCCCCCC [octane] + CCCCCCCCn1cc[n+](C)c1C.F[B-](F)(F)F,31.3 ± 3.3
8,"Cc1ccc(C)cc1 [1,4-dimethylbenzene] + CCCCCCCCn1cc[n+](C)c1C.F[B-](F)(F)F",4.24 ± 0.45
9,CC(C)=O [acetone] + CCCCCCCCn1cc[n+](C)c1C.F[B-](F)(F)F,1.43 ± 0.15
10,"Cc1cccc(C)c1 [1,3-dimethylbenzene] + CCCCCCCCn1cc[n+](C)c1C.F[B-](F)(F)F",4.4 ± 0.46
11,ClC(Cl)Cl [trichloromethane] + CCCCCCCCn1cc[n+](C)c1C.F[B-](F)(F)F,1.09 ± 0.11
12,"Cc1ccccc1C [1,2-dimethylbenzene] + CCCCCCCCn1cc[n+](C)c1C.F[B-](F)(F)F",3.87 ± 0.41
13,Cc1ccccc1 [toluene] + CCCCCCCCn1cc[n+](C)c1C.F[B-](F)(F)F,3.09 ± 0.32
14,CCCCCCCCCC [decane] + CCCCCCCCn1cc[n+](C)c1C.F[B-](F)(F)F,50.5 ± 5.3

# Now from value to compound:
row,activity coefficient,Structure (SMILES)
1,14.3 ± 1.5,CC1CCCCC1 [methylcyclohexane] + CCCCCCCCn1cc[n+](C)c1C.F[B-](F)(F)F
2,14 ± 1.5,CCCCC [pentane] + CCCCCCCCn1cc[n+](C)c1C.F[B-](F)(F)F
3,2.19 ± 0.23,CC(C)CO [2-methyl-1-propanol] + CCCCCCCCn1cc[n+](C)c1C.F[B-](F)(F)F
4,7.52 ± 0.79,C1=CCCCC1 [cyclohexene] + CCCCCCCCn1cc[n+](C)c1C.F[B-](F)(F)F
5,1.54 ± 0.16,CCO [ethanol] + CCCCCCCCn1cc[n+](C)c1C.F[B-](F)(F)F
6,11.5 ± 1.2,C1CCCCC1 [cyclohexane] + CCCCCCCCn1cc[n+](C)c1C.F[B-](F)(F)F
7,26.1 ± 2.8,"CC(C)CC(C)(C)C [2,2,4-trimethylpentane] + CCCCCCCCn1cc[n+](C)c1C.F[B-](F)(F)F"
8,2.4 ± 0.25,CCC(C)O (stereo not given) [butan-2-ol] + CCCCCCCCn1cc[n+](C)c1C.F[B-](F)(F)F
9,1.86 ± 0.19,"C1COCCO1 [1,4-dioxane] + CCCCCCCCn1cc[n+](C)c1C.F[B-](F)(F)F"
10,1.18 ± 0.12,CO [methanol] + CCCCCCCCn1cc[n+](C)c1C.F[B-](F)(F)F
11,18.1 ± 1.9,CCCCCC [hexane] + CCCCCCCCn1cc[n+](C)c1C.F[B-](F)(F)F
12,2.28 ± 0.24,CCCCO [butan-1-ol] + CCCCCCCCn1cc[n+](C)c1C.F[B-](F)(F)F
13,1.93 ± 0.2,CC(C)O [propan-2-ol] + CCCCCCCCn1cc[n+](C)c1C.F[B-](F)(F)F
14,2.96 ± 0.31,CCOC(C)=O [ethyl acetate] + CCCCCCCCn1cc[n+](C)c1C.F[B-](F)(F)F
15,1.07 ± 0.11,CC#N [acetonitrile] + CCCCCCCCn1cc[n+](C)c1C.F[B-](F)(F)F
16,1.97 ± 0.21,CCCO [propan-1-ol] + CCCCCCCCn1cc[n+](C)c1C.F[B-](F)(F)F
17,2.15 ± 0.23,C1CCOC1 [tetrahydrofuran] + CCCCCCCCn1cc[n+](C)c1C.F[B-](F)(F)F
